# Reference: PubChem BioAssay AID651703 (Broad Institute, 2012)
# Values joined by “and” are separate entries in the source; they are usually repeats but may differ in a detail not shown here. Identical values can stand only once.
# Molecular target: Transforming acidic coiled-coil-containing protein 3 (Homo sapiens) (UniProt Q9Y6A5)
# Experiment: inhibition of ARNT PAS-B/TACC3 complex formation – biochemical, AlphaScreen, cherry-picked samples, confirmation (AID 651703);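 note: TACC3 partner is the GST-tagged E629A mutant dimer; hits lower the signal meaning they disrupt ARNT binding to TACC3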
# Settings: AlphaScreen His-ARNT PAS-B / GST-TACC3 binding, luminescence
row,Compound,AC50
1,O=S(=O)(N[C@@H]1CC[C@H](CCn2cc(-c3ccccn3)nn2)O[C@@H]1CO)c1cccc(F)c1,29.1 µM
2,Oc1ccc(CN2CCC3CCCCC3C2)c2cccnc12 (configuration not stated),1.22 µM
3,O=C(NCCCn1ccnc1)C(=O)NCC1OCCN1S(=O)(=O)c1ccc(F)cc1 (configuration not stated),3.5 µM
4,Cc1ccc(NC(=O)CNCc2ccccn2)cc1S(=O)(=O)N(C)C,8.68 µM
5,OCCN(Cc1cccnc1)Cc1ccccn1,2.28 µM
6,Oc1ccc(/C=N/Nc2ncc(Br)cn2)c(O)c1,6.19 µM
7,CN1CCc2c(sc3c2C(=O)NC(c2ccccn2)N3)C1 (configuration not stated),5.51 µM
8,O=C(COc1ccccc1)Nc1nnc(-c2ccccc2)o1,16.5 µM
9,O=C(Nc1nnc(-c2cccs2)o1)c1ccc(S(=O)(=O)N2CCOCC2)cc1,17.1 µM
10,CCOC(=O)c1cnc(-n2[nH]c(C)cc2=O)[nH]c1=O,0.754 µM
11,CCOc1ncccc1C(=O)OCC(=O)Nc1nnc(-c2ccccc2)o1,21.6 µM
12,O=C(Nc1nc(-c2ccccn2)cs1)c1ccc([N+](=O)[O-])o1,11.1 µM
13,Cc1ccc(/C=N/Nc2cn[nH]c(=O)n2)o1,26.3 µM
14,O=C(N/N=C/c1c(O)ccc2ccccc12)c1ccc(CO)nc1,10.8 µM
15,O=C(O)CSc1c(O)c2ccccc2[nH]c1=O,34.5 µM
16,CC(=O)NC(c1cccs1)c1cc([N+](=O)[O-])c2cccnc2c1O (configuration not stated),2.71 µM
17,Cc1nnc(NC(=O)C2CCN(S(=O)(=O)c3cc([N+](=O)[O-])ccc3Cl)CC2)o1,21.9 µM
18,O=C(CSc1ccc(-c2ccccn2)nn1)Nc1nccs1,2.93 µM
19,CC(=O)NC(c1ccc(Cl)cc1Cl)c1ccc2cccnc2c1O (configuration not stated),5.14 µM
20,Cn1c(-c2ccccc2)cnc1N,37.5 µM
21,c1ccc(CCNc2nc(-c3ccccn3)nc3ccccc23)cc1,20.1 µM
22,CN(C)c1nc(-c2ccccn2)nnc1-c1ccccc1,< 0.5 µM
23,CC(C)(C)c1ccc(OCCNC(=O)c2ncn[nH]2)cc1,15.8 µM
24,O=C(Nc1nc(-c2ccccn2)cs1)C12CC3CC(CC(O)(C3)C1)C2,6.45 µM

row,Compound,AC50
1,Cc1cccc(S(=O)(=O)N[C@H]2CC[C@H](CCn3cc(-c4ccccn4)nn3)O[C@H]2CO)c1,18.5 µM
2,O=C(Nc1nc(-c2ccccn2)cs1)c1ccc(Cl)s1,3.61 µM
3,NS(=O)(=O)c1ccc(N=Nc2c[nH]c(=O)c(O)c2)cc1,57.9 µM
4,Cc1cccc(S(=O)(=O)N[C@H]2CC[C@@H](CCn3cc(-c4ccccn4)nn3)O[C@@H]2CO)c1,24.3 µM
5,CCOC(=O)N1CCN(C(c2cccnc2)c2ccc3cccnc3c2O)CC1 (configuration not stated),4.64 µM
6,O=C(Nc1nnc(C2=COCCO2)o1)c1ccc([N+](=O)[O-])cc1,34.3 µM
7,COCCN=c1scc(-c2ccco2)n1/N=C/c1ccc(O)c(O)c1O,9.77 µM
8,O=C(Nc1ccc(N2CCN(C(=O)c3ccccc3F)CC2)cc1)c1ncn[nH]1,17.8 µM
9,CCOc1ccccc1NC(=O)CN(c1ccc(OC)cc1)S(=O)(=O)c1c(C)[nH]c(=O)[nH]c1=O,10.5 µM
10,O=c1cc(CSc2ccc(Cl)cc2)nc(-c2ccccn2)[nH]1,3.69 µM
11,CS(=O)(=O)c1cccc(-c2nnc(NC(=O)c3ccc(S(=O)(=O)N4CCCC4)cc3)o2)c1,22.5 µM
12,CN1CC[C@@]2(C)c3cc(O)ccc3N(C)[C@@H]12,60.1 µM
13,COc1ccccc1N1CCN(Cc2ccc(O)c3ncccc23)CC1,0.669 µM and 2.18 µM
14,O=C(CC(=O)N/N=C/c1ccccc1O)NCc1cccnc1,32.8 µM
15,N#CCC(=O)N/N=C\c1ccccc1OC/C=C/c1ccccc1,6.51 µM
16,COc1ccc2nc(/N=C/c3c(C)[nH]n(-c4ccc(C)cc4)c3=O)sc2c1,46.3 µM
17,CCNC(=O)C(=O)N/N=C/c1cc([N+](=O)[O-])ccc1O,2.62 µM
18,C=CCNc1nc(-c2ccccn2)nnc1-c1ccccc1,< 0.5 µM
19,NNc1ccc(S(=O)(=O)N2CCCCC2)cn1,9.17 µM
20,c1ccc(-c2nc(-c3ccncc3)n[nH]2)nc1,2.79 µM
21,COc1cc(/C=N/NC(=O)c2cncc(Br)c2)cc([N+](=O)[O-])c1O,42 µM
22,c1ccc(-c2nnc(-c3ccccn3)nn2)nc1,28.8 µM
23,CCc1cc(C(=O)Nc2nc(-c3ccccn3)cs2)sc1C,22.9 µM
